Patent US12115153B2, “Methods of treating cancer” (Kartos Therapeutics, Inc., priority 2018, dated 2024)

Columns and labels:
AML tumor = AML tumor growth (FIG. 7, FIG. 8); type: in vivo, mouse
HCT116 (KRAS) tumor = assay: HCT116 xenograft study; type: in vivo, female athymic nude mice
Description: (§1) All animal experimental procedures were conducted in accordance with Association for Assessment and Accreditation of Laboratory Animal Care standards. All studies utilized 4- to 6-week-old female athymic nude mice (Harlan Laboratories, Hsd: Athymic Nude-Foxn1nu). The mice were housed five per filter-capped cage in sterile housing in an environmentally controlled room (temperature 23±2° C., relative humidity 50±20%) on a 12-hour light/dark cycle. The mice were fed commercial rodent chow (Harlan Laboratories, #2920X) and received filter-purified tap water ad libitum. The mice were individually identified by microchips (Bio Medic Data Systems) that were implanted subcutaneously at least 2 days before the study.
(§2) SJSA-1 cells (5×10^6 cells with Matrigel at a ratio of 2:1), NCI-H460 cells (5×10^6 cells with Matrigel at a ratio of 2:1), A375sq2 (5×10^6 cells with Matrigel at a ratio of 2:1), or HCT116 ([…]) were injected subcutaneously in the flank of female athymic nude mice (n=10/group). Treatment began when tumors were established and approximately 200 mm3. The compound of Formula (I) was administered once per day by oral gavage. Tumor dimensions were assessed twice weekly with a Pro-Max electronic digital caliper (Sylvac) and tumor volume was calculated using the formula: length×width×height and expressed as mm3. Data are expressed as mean±SEM. Body weight was recorded twice weekly to assess tolerability (data not shown). Analysis of p21 mRNA at the end of the xenograft studies was performed as described for the p21 pharmacodynamic assay.

cell cycle = assay: Cell cycle (FIG. 9); type: cell-based
A375sq2 (BRAF) tumor = assay: A375sq2 xenograft study; type: in vivo, female athymic nude mice
Description: as §1
as §2, with “The compound of Formula (I) was administered once per day by oral gavage.” left out, “Analysis of p21 mRNA at the end of the xenograft studies was performed as described for the p21 pharmacodynamic assay.” left out

[1] = system: tumor cell lines harboring wild-type p53; assay: Xenograft models of different genetic backgrounds and tumor types (all models); type: in vivo, female athymic nude mice; details: daily oral administration, FIGS. 3-5
Description: as §1
as §2, with “The compound of Formula (I) was administered once per day by oral gavage.” left out, “Analysis of p21 mRNA at the end of the xenograft studies was performed as described for the p21 pharmacodynamic assay.” left out

[2] = system: p53 wild type AML cell lines; assay: Apoptosis in AML cell lines (FIG. 10); type: cell-based
p21 mRNA = p21 mRNA in tumors harvested at the end of xenograft studies (qRT-PCR); type: in vivo, female athymic nude mice; details: FIG. 6
Description: Tumor cells (SJSA-1: 5×10^6 cells, HCT 116: 2×10^6 cells) were injected subcutaneously into the flank of female athymic nude mice in a 2:1 ratio of cells to Matrigel (BD Bioscience). […] Tumors were harvested after 1, 2, 4, 8, and 24 hours after dose (SJSA-1) or 6 hours after dose (HCT116) and snap-frozen in liquid nitrogen. Total RNA was purified using Qiagen RNeasy 96 kit (Qiagen). The levels of p21 and the housekeeping gene GAPDH were assayed from total RNA from each sample in technical duplicates by qRTPCR. The qRT-PCR reactions were assayed on the Applied Biosystems Prism 7900HT instrument and the data were analyzed with Applied Biosystems SDS2.2 software. The SDS2.2 software calculated the p21 and GAPDH copy number in each of the tumor samples. The copy number of p21 was normalized to the copy number of the GAPDH, and the fold increase of normalized p21 levels were calculated relative to vehicle control for each sample. For MIC-1, plasma was collected at the time of sacrifice and MIC-1 was detected using R&D Quantikine Human MIC-1 Immunoassay (cat no. DGD150) following the manufacturer's instructions. The ELISA assay was read using a Spectramax M5 microplate reader using Softmax pro v4 (Molecular Devices). […]

[3] = system: SJSA-1 (MDM2 amplified) tumor; assay: SJSA-1 xenograft study; type: in vivo, female athymic nude mice
Description: as §1
Treatment began when tumors were established and approximately 200 mm3. […] Tumor dimensions were assessed twice weekly with a Pro-Max electronic digital caliper (Sylvac) and tumor volume was calculated using the formula: length×width×height and expressed as mm3. Data are expressed as mean±SEM. […] Analysis of p21 mRNA at the end of the xenograft studies was performed as described for the p21 pharmacodynamic assay.

[4] = system: p53 wild-type tumor cell lines; assay: Cell viability assay (72 hours), panel of tumor cell lines; type: cell-based
Excerpt: SJSA-1, HCT116, ACHN, NCI-H460, MOLM-13, RKO, MCF7, 22RV1, HT-29, PC-3, NCI-H82, NCI-SNU1, and MG-63 cells were purchased from the ATCC, and have since been authenticated by short tandem repeat analysis (PowerPlex 18D Kit from Promega). NCI-H2452, SW982, C32, SK-HEP-1, A375, RT4, RPMI-2650, MDA-MB-134-VI, NCI-H2347, and A427 cells were purchased from ATCC and used within 6 months. IGR-1 and CML-T1 cells were purchased from German Collection of Microorganisms and Cell Cultures (DSMZ) and used within 6 months. A375sq2 cells were generated by in vivo passaging A375 cells in mice. HCT116 p53^−/− cells were obtained from Bert Vogelstein. […]
CellTiter-Glo Luminescent Cell Viability (Promega) or ATPlite 1 step Luminescent (PerkinElmer) assay kits were used to determine the numbers of viable cells. Luminescence was measured with an EnVision Multilabel Reader (PerkinElmer) for each cell line at time zero (V0) before the addition of compounds, as well as after 72 hours of compound treatment. Growth inhibition (GI) was calculated on a 200-point scale according to the following equations, where V72 was luminescence of DMSO control at 72 hours and T72 was luminescence of the compound-treated sample: if T72>V0, then GI=100×(1−((T72−V0)/(V72−V0))); if T72<V0, then GI=100×(1−((T72−V0)/V0)). […]

## CC(C)[C@@H](CS(=O)(=O)C(C)C)N1C(=O)[C@@](C)(CC(=O)O)C[C@H](c2cccc(Cl)c2)[C@H]1c1ccc(Cl)cc1 [compound of Formula (I), 2-((3R,5R,6S)-5-(3-chlorophenyl)-6-(4-chlorophenyl)-1-((S)-1-(isopropylsulfonyl)-3-methylbutan-2-yl)-3-methyl-2-oxopiperidin-3-yl) acetic acid]
AML tumor
  AML tumor growth: inhibits AML tumor growth in a mouse model in a dose dependent manner
HCT116 (KRAS) tumor; Mus musculus, HCT-116, po, once per day by oral gavage, read-out: ED50, in vivo tumor growth
  ED50: 31.6 mg/kg
HCT116 (KRAS) tumor; highest dose
  TGI compared with control: 86%
HCT116 (KRAS) tumor; once per day by oral gavage
  ED50, in vivo tumor growth: 31 mg/kg
Cell cycle
  effect on cell cycle: inhibits the cell cycle
A375sq2 (BRAF) tumor; Mus musculus, A375-SQ2, once per day by oral gavage, read-out: ED50, in vivo tumor growth
  ED50: 18 mg/kg
A375sq2 (BRAF) tumor; mouse, in vivo
  TGI: 97%
[1]
  tumor growth inhibition (TGI) across all models: significant tumor growth inhibition
[2]
  apoptosis: induces apoptosis
p21 mRNA
  induction of p21 mRNA compared with vehicle-treated tumors: dose- and time-dependent induction of p21 mRNA
[3]; 75 mg/kg group, treatment stopped after day 25, observed additional 50 days
  tumor regrowth after treatment stopped: no detectable SJSA-1 tumor regrowth
[3]; Mus musculus, SJSA-1, po, once per day by oral gavage, read-out: ED50, in vivo tumor growth
  ED50: 9 mg/kg
[3]; highest dose group of 75 mg/kg, after 10 days of treatment
  tumors completely regressed and undetectable: 10 of 10
[4]; 23 p53 wild-type cell lines, 72-hour period, read-out: IC50, inhibition of cell growth
  IC50: 100 to 1000 nM
[4]; FIG. 2
  proliferation of p53 WT tumor cells: inhibits the proliferation of p53 WT tumor cells
